Source: patent US12421187B2, “Dihydrofolate synthase (DHFS) inhibiting agents and methods of making and using same” (Washington Univeristy, priority 2022, dated 2025)
In brackets after ≈: the same amount, converted by molar mass. Entries after “also recorded” stand apart in the source; their conditions may differ. Read-outs that look alike come from different tables or passages of the source.

How the values were obtained:
[1] = target: T1, dihydropteroate synthase (DHPS) (Escherichia coli, UniProt P0AC13); experiment: HPPK/DHPS/DHFR steady state kinetics with PABA or 3-HβL as DHPS substrate; assay type: biochemical, E. coli
T1 construct: made in house; host or cells: E. coli BL21 (given for HPPK; the other enzymes 'in the same manner')
T1 sequence (P0AC13 whole entry): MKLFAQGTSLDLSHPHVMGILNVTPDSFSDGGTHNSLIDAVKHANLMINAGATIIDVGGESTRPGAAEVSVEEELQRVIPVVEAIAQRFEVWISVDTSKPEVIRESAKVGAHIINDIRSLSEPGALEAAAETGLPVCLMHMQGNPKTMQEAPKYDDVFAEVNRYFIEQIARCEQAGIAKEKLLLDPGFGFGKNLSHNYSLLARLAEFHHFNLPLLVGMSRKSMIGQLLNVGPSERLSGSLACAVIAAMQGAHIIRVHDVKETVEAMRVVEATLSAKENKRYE
Method: (§1) DHFR would only reduce dihydropteroic acid, not 6-hydroxymethyl-7,8-dihydropterin, and as long as the DHFR rate was not slower than the DHPS rate, then the rate limiting step of DHPS is represented by the decrease in absorbance at 340 nm overtime.
(§2) HPPK, DHPS, DHFR and all their associated cosubstrates (ATP, PABA, NADPH) were combined in suitable buffer conditions (pH=7.5) and the optical absorbance at 340 nm was measured over time (see e.g., FIG. 21A).
HPPK/DHPS/DHFR Steady State Kinetics
Stock solutions of all reagents were made using 100 mM Tris buffer (pH=7.5) and stored in fractions in a −80° C. freezer until use (see e.g., TABLE 5).
An assay stock solution containing everything except the enzymes was made and 142.5 μL was distributed to each well (6 total) on a quartz 96-well plate that had been flushed with argon. To each of the first three wells was then added 7.5 μL of the enzyme solution containing HPPK/DHPS/DHFR, and to each of the last 3 wells was added 7.5 μL of 100 mM Tris-buffer. The 96-well plate was put into a UV/Vis plate reader and incubated at 37° C. while the optical absorbance at nm was read every 10 s for 1 h. The apparent reaction rate for absorbance decrease was measured from between 0-5 min. Each well was combined with their triplicate partners and the solutions were centrifuge filtered through a molecular weight cutoff (MWCO) to remove any enzymes. The solutions then run on an LCMS with single ion monitoring methods to detect the various oxidation states of products.
HPPK/DHPS/DHFR Steady State Kinetics with a 3-HG3L as a Substrate Stock solutions of all reagents were made using 100 mM Tris buffer (pH=7.5) and stored in fractions in a −80° C. freezer until use (see e.g., TABLE 7).
An assay stock solution containing everything except the enzymes was made and 142.5 μL was distributed to each well (6 total) on a quartz 96-well plate that had been flushed with argon. To each of the first three wells was then added 7.5 μL of the enzyme solution containing HPPK/DHPS/DHFR, and to each of the last 3 wells was added 7.5 μL of 100 mM Tris-buffer. The 96-well plate was put into a UV/Vis plate reader and incubated at 37° C. while the optical absorbance at nm was read every 10 s for 1 h. The apparent reaction rate for absorbance decrease was measured from between 0-5 min. Each well was combined with 1-0 their triplicate partners and the solutions were centrifuge filtered through a molecular weight cutoff (MWCO) to remove any enzymes. The solutions then run on an LCMS with single ion monitoring methods to detect the various oxidation states of products.

[2] = target: T1, dihydropteroate synthase (DHPS); experiment: HPPK/DHPS/DHFR steady state kinetics inhibition assay (NADPH consumption, absorbance at 340 nm); assay type: biochemical, E. coli
Method: as §1, §2
HPPK/DHPS/DHFR Steady State Kinetics Inhibition
Stock solutions of all reagents were made using 100 mM Tris-buffer (pH=7.5) and stored in fractions in a −80° C. freezer until use (see e.g., TABLE 6).
An assay stock solution containing everything except the HPPK/DHPS/DHFR solution and the Tris buffer+Inhibitor was made and 88.5 μL was distributed to each well (in triplicate) of a quartz 96-well plate to be used. […] 7.5 μL of the enzyme solution containing HPPK/DHPS/DHFR was added to each well and the plate was put into a UV/Vis plate reader and incubated at 37° C. while the optical absorbance at 340 nm was read every 10 s for 1 h. The apparent reaction 1-9 rate for absorbance decrease was measured from between 0-5 min.

[3] = target: T2, dihydrofolate synthetase (DHFS) (Escherichia coli, UniProt P08192); experiment: DHFS steady state kinetics inhibition assay (PK/LDH coupled, absorbance at 340 nm, LCMS of product); assay type: biochemical, E. coli; conditions: for DHFS product detected by LCMS of the reaction mixtures: higher inhibitor concentrations, FIG. 38A-38B
T2 construct: made in house; host or cells: E. coli BL21 (given for HPPK; the other enzymes 'in the same manner')
T2 sequence (P08192 whole entry): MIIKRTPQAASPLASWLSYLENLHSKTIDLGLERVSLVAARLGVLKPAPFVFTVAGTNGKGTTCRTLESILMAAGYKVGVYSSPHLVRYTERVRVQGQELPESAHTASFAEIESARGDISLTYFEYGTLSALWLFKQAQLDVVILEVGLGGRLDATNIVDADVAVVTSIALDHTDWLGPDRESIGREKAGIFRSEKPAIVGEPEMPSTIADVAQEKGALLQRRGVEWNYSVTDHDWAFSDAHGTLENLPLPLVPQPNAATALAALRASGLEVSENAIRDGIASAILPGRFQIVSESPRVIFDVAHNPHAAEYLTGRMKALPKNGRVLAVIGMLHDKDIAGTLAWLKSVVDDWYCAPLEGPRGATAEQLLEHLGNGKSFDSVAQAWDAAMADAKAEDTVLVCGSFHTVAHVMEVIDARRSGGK
From the text: With a suitable DHFS substrate in hand (THFA), conditions to measure the rate of DHFS action were investigated. […] Given none of the substrates or cofactors of DHFS (see e.g., FIG. 19) would be suitable for absorbance change detection, a coupled enzyme reaction with pyruvate kinase/lactate dehydrogenase (PK/LDH) was chosen. In the presence of ADP (in this case produced by DHFS), PK would convert phosphoenolpyruvate (PEP) to pyruvate, reforming ATP in the process (see e.g., FIG. 20A). The pyruvate would then be reduced by LDH in a NADH dependent manner (see e.g., FIG. 20B). The oxidation of NADH to NAD^+ would cause a decrease in absorbance at 340 nm, which can be measured as a rate of DHFS activity as long as the PK/LDH process was not the rate limiting step of the pathway from THFA to NAD^+.
THFA and its associated cofactors (L-Glu, ATP) were dissolved in degassed buffer solution (pH=7.5) to reconstitute DHFS activity with coupling to PK/LDH activity in the presence of excess cosubstrates (PEP, NADH) (see e.g., FIG. 24A). The optical absorbance at 340 nm was measured over time and a steady-state approximation of DHFS rate (7.18 E-5 abs/s) was determined (see e.g., FIG. 24B). Once the reaction had progressed for 20 minutes, 1 M HCl was added to quench the reaction and KCl+MeOH was added to agglutinate the protein and solubilize the pterin-containing metabolites. The vials were heated for 1 h at 70° C. and centrifuged to remove precipitated enzymes. The supernatant solution was spiked with a fixed concentration of Fmoc-alanine as an internal standard for LCMS analysis.
DHFS Steady State Kinetics Inhibition Assay
Stock solutions of all reagents were made using 100 mM Tris-buffer (pH=7.5) an stored in fractions in a −80° C. freezer until use. 1500 μL of a stock solution containing everything (in appropriate amounts to maintain the final concentration calculations for 150 total μL well volume) in the table above except the DHFS and the Tris Buffer+inhibitor was made. Solutions of the Tris Buffer+inhibitor were made so as to achieve final inhibitor concentrations as below. The final concentrations of inhibitor can be adjusted as necessary.
Each necessary well of a quartz 96-well plate was flushed with argon then filled (in triplicate) with 69.75 μL of stock solution and 75.75 μL of Tris Buffer+Inhibitor solution. The quartz plate was incubated at 37° C. for 10 minutes then 4.5 μL of DHFS stock solution was quickly added to each well except well 6, to which 4.5 μL of Tris-buffer was added. The quartz plate was put in a plate reader at 37° C. and the optical absorbance at 340 nm was read every 10 seconds for 20 min. The apparent reaction rate for absorbance decrease was measured from between 0-5 min. Each well was combined with their triplicate partners and the solutions were centrifuge filtered through a molecular weight cutoff (MWCO) to remove any enzymes. The solutions were spiked with enough Fmoc-ala to bring the final concentration to 50 μM (moc-ala then run on an LCMS with single ion monitoring methods to detect the various oxidation states of THEA and Glu-THFA.
An alternative method is as follows: After the 20-minute optical absorbance reading, the triplicate solutions were combined then diluted with 200 μL MeOH and an amount of KCl in H2O to bring the final concentration of KCl to 20 mM. The solutions were then incubated at 70° C. for 1 h. […]

E. coli = experiment: Whole cell antibacterial susceptibility test, bacterial growth curves in 96-well plate; assay type: cell-based
Method: Bacterial growth curves were determined for E. coli using two compounds—inhibitor 4.10 and trimethoprim (positive control). A 96-well plate format was used to achieve serial dilution of the test compounds and included a DMSO control to simulate the concentration of DMSO required to solubilize the test compounds in the growth medium (not shown).

DHFS = target: T3, DHFS (Escherichia coli, UniProt P08192); experiment: Protein mass spectrometry of DHFS incubated with inhibitor (covalent adduct search); set-up: species or system E. coli; conditions: 0, 40, 400 μM inhibitor, 20 μM DHFS, 37° C., 1 hour
T3 construct: made in house; host or cells: E. coli BL21 (given for HPPK; the other enzymes 'in the same manner')
T3 sequence (P08192 whole entry): as above
From the text: If DHFS is indeed phosphorylating the 3-hydroxyl group of the 3-HβL warhead, then why was it not detected by LCMS analysis? The possibility was considered that the higher concentrations of compound 4.10 resulting in 100% DHFS inhibition might be consistent with covalent modification of the enzyme by the inhibitor. This could happen by a variety of different mechanisms including the canonical β-lactam suicide inhibition mechanism through acylation of nucleophilic amino acid side chains. However, there is a potentially novel mechanism at play when considering the reactivity of an activated benzylic position of para-aniline derivatives. The presence of a leaving group at the benzylic position of para-anilines results in the formation of reactive quinone-imine-methide species. If the 3-hydroxy group of inhibitor 4.10 is phosphorylated in the DHFS active site, it could serve as a leaving group leading to spontaneous formation of a quinone-imine-methide that might react with nearby amino acid side chains. This transformation could also take place within the mass spec, making detection of the phosphorylated inhibitor impossible (see e.g., FIG. 39). […] The LCMS samples were also analyzed for the presence of a reaction product between the 3-HβL and L-Glu, but no masses which could match this description were found. […]

E. coli ATC 25922 = experiment: Agar diffusion antibacterial susceptibility assay; assay type: cell-based; conditions: for zone of inhibition at 3520 µg/mL / zone of inhibition at 15000 µg/mL: Escherichia coli; for zone of inhibition at 15000 µg/mL: 15 mg/mL in DMSO
Method: Inhibitor 4.10 was also used alongside sulfamethoxazole and trimethoprim and in combination with sulfamethoxazole and trimethoprim respectively, in an agar diffusion antibacterial susceptibility assay (see e.g., FIG. 41 and TABLE 11).
An overnight culture of E. coli ATC 25922 was grown in 5 mL of LB broth. 22 g of Mueller Hinton II broth powder and 15 g of agar were dissolved in 1 L of dd-H2O and autoclaved. The MH II agar broth was cooled to 47° C. and 35 mL of MH II agar broth was inoculated with 100 μL of OD600=0.1 E. coli from the overnight culture. The inoculated agar was plated and once cool enough, 10 wells were cut out using a vacuum. Each well was filled with 50 μL DMSO solutions as below and the plates were left in an incubator at 37° C. for 18 h. The zones of inhibition were measured for each well.

[4] = ATC25922, 3.52 mg/mL in DMSO, 50 μL per well, 37° C., 18 h, read-out: Zone of Inhibition
[5] = ATC25922, 50 μL per well, 37° C., 18 h

Question: Which results are given for `Nc1ccc(C2(O)CNC2=O)cc1` (stereo not shown) [Compound 2.44, 3-(4-aminophenyl)-3-hydroxyazetidin-2-one]?
Answer: Substrate of DHPS, rate as substrate (in words) [1]: substrate of DHPS; Substrate of DHPS, rate as substrate (in words) ([1]; listed as 3-(para-NH2-phenyl)-3-HβL): substrate; Substrate of DHPS, rate as substrate (in words) ([1]; listed as BVD-3-7): slower; Inhibition of DHPS (in words) [2]: not an inhibitor of DHPS

Question: How did the “Dose-dependent inhibition of DHFS (in words)” value [3] turn out when `Nc1ncc(CNc2ccc(C3(O)CNC3=O)cc2)c(N)n1` (stereo not shown) [Compound 4.6, 3-(4-(((2,4-diaminopyrimidin-5-yl)methyl)amino)phenyl)-3-hydroxyazetidin-2-one] was run?
Answer: no apparent dose dependent inhibition of DHFS

Question: What does the source list for `Nc1nc(N)c2nc(CNc3ccc(C4(O)CNC4=O)cc3)cnc2n1` (stereo not shown) [Compound 4.10, 3-(4-(((2,4-diaminopteridin-6-yl)methyl)amino)phenyl)-3-hydroxyazetidin-2-one]?
Answer: Inhibition of bacterial growth (in words) (E. coli; serial dilution, compared with DMSO control): No significant inhibition of bacterial growth; Dose-dependent inhibition of DHFS (in words) [3]: dose-dependent inhibitory response; DHFS rate inhibition ([3]; at higher (double digit micromolar) concentrations): ~100%; DHFS product detected by LCMS of the reaction mixtures [3]: no product detected; 3-HβL-DHFS covalent adducts by protein mass spectrometry (in words) (DHFS): no apparent peaks corresponding to DHFS+334 mass units; also recorded: no 3-HβL—DHFS adducts formed; Bacterial growth inhibition in agar diffusion (in words) (E. coli ATC 25922; E. coli): no bacterial growth inhibition was observed; also recorded: no apparent effect on E. coli growth; Synergistic effect in combination with sulfamethoxazole or trimethoprim (in words) (E. coli ATC 25922; E. coli): No apparent synergistic effect; zone of inhibition at 3520 µg/mL (E. coli ATC 25922; ATC25922, 18 h): 0 mm

Question: For `NCC(O)(C(=O)O)c1ccc(NCc2cnc3nc(N)nc(N)c3n2)cc1` (stereo not shown) [Compound 4.12, 3-amino-2-(4-(((2,4-diaminopteridin-6-yl)methyl)amino)phenyl)-2-hydroxypropanoic acid], which “DHFS product detected by LCMS of the reaction mixtures” value [3] is on record?
Answer: still showed some product

Question: Which “Substrate of DHPS, rate as substrate (in words)” value [1] does the source give for `Nc1ccc(C(=O)O)cc1` [PABA, p-amino-benzoic acid, reference compound] here?
Answer: faster

Question: How did the “Bacterial growth inhibition in agar diffusion (in words)” value (E. coli ATC 25922; E. coli) turn out when `Cc1cc(NS(=O)(=O)c2ccc(N)cc2)no1` [sulfamethoxazole] was run?
Answer: clear zones of bacterial growth inhibition

Question: And the zone of inhibition at 3520 µg/mL (E. coli ATC 25922; [4])?
Answer: 23.2 mm

Question: What about the zone of inhibition at 15000 µg/mL (E. coli ATC 25922; [5]) of the same molecule?
Answer: 25.9 mm

Question: What does the source list for `COc1cc(Cc2cnc(N)nc2N)cc(OC)c1OC` [trimethoprim]?
Answer: MIC (E. coli; Escherichia coli, read-out: MIC (minimum inhibitory concentration)): 2 µM (≈ 0.581 µg/mL); Bacterial growth inhibition in agar diffusion (in words) (E. coli ATC 25922; E. coli): clear zones of bacterial growth inhibition; zone of inhibition at 3520 µg/mL (E. coli ATC 25922; [4]): 39.6 mm; zone of inhibition at 15000 µg/mL (E. coli ATC 25922; [5]): 45.3 mm
